One assay concerns the target EGFR^WT kinase (Homo sapiens, UniProt P00533). In words: EGFR^WT kinase assay (ULight/PT66 TR-FRET). The class given is biochemical. As to the method:
(§1) Preparation of compound solution: The assay compound was dissolved in DMSO to form a 10 mM stock solution. Prior to use, the compound was diluted to 0.25 mM in DMSO (100 times the final concentration of the diluent) and then subjected to a 3-fold concentration gradient dilution to obtain a total of 11 concentrations. The solution was diluted with buffer to a diluent with 4× the final concentration when the compound was added.
(§2) EGFR^WT kinase assay: buffer was prepared, and 3.48 nM 4×EGFR kinase solution, 600 μM 4×ATP solution, and 400 nM 4×ULight™-labeled JAK-1 (Try1023) Peptide substrate solution were prepared using the buffer. After the preparation was completed, the enzyme was mixed with different concentrations of compounds pre-prepared by dilution, and the mixture was left to stand at room temperature for 5 min. Each concentration was performed in duplicate. The corresponding substrate and ATP were added and the mixture was reacted at room temperature for 120 minutes (with negative and positive controls). After completion of the reaction, PT66 detection antibody was added. The mixture was incubated at room temperature for 60 minutes, and then detected by Envision.
(§3) Compound concentrations and corresponding inhibition rates were input into GraphPad Prism for processing to calculate IC50 values.
(In general: Time-resolved FRET reads energy transfer from a long-lived donor to a nearby acceptor.)

The target in the next assay is T1, HER2 kinase (Homo sapiens, UniProt P04626).
T1 construct: purchased Carna Biosciences 08-016
T1 sequence (P04626 23-1255): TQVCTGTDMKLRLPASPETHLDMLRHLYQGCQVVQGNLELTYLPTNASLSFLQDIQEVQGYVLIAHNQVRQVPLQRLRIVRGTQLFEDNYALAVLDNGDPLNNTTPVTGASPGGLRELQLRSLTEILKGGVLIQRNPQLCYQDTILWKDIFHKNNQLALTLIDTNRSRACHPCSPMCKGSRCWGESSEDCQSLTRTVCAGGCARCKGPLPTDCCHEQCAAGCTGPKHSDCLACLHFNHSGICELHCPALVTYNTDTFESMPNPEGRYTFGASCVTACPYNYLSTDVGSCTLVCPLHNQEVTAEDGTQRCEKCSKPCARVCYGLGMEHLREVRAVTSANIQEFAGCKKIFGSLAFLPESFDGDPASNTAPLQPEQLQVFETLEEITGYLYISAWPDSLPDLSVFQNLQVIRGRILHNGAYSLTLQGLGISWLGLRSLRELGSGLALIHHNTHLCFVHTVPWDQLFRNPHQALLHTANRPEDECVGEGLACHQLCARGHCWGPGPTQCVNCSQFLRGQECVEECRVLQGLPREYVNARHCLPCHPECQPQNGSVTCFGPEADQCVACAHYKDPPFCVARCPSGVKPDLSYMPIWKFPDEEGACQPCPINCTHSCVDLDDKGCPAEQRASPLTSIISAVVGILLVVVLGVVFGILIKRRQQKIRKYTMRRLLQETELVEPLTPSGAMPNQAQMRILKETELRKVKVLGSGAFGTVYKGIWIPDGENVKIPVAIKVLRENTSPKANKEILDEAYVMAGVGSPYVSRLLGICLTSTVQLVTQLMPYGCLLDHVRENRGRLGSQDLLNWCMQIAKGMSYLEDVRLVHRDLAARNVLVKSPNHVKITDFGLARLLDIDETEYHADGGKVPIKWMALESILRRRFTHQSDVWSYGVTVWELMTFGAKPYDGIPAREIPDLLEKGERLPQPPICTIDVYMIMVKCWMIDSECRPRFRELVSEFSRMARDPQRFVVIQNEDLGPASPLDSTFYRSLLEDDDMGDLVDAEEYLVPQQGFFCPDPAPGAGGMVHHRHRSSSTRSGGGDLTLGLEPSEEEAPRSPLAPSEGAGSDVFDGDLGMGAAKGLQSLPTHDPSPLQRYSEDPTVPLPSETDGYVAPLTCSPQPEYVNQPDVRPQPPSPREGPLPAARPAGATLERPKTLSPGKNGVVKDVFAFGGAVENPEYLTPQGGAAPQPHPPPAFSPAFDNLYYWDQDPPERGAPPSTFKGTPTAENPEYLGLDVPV
Description: HER2 kinase assay (ULight/PT66 TR-FRET). It is filed as biochemical. As to the method: as §1
as §2, with “HER2” for “EGFR^WT”, “40” for “3.48”, “4×Her2” for “4×EGFR”, “40” for “600”, “Ploy GT” for “JAK-1 (Try1023)”
as §3

The target of assay [1] is Ba/F3 HER2 A775_G776insYVMA cells (Homo sapiens, UniProt P04626, DUP772-775, cells depend on it). In words: Inhibition of cell proliferation, CTG method, Ba/F3 HER2 A775_G776insYVMA. The class given is cell-based. To be noted: 72 hours, read-out: Ba/F3 HER2 A775-G776insYVMA IC50. The source says:
The present application examined the in vitro anti-proliferative activity of the compounds of the present disclosure against in vitro cultured BT474, NCI-N87, Ba/F3-EGFR-VIII and Ba/F3 HER2 A775_G776insYVMA and Ba/F3 EGFR D770_N771insSVD cell lines by CTG method.
Cell lines: BT474 (from the cell bank of Chinese Academy of Sciences), NCI-N87 (from ATCC), Ba/F3-EGFR-VIII, Ba/F3 HER2 A775_G776insYVMA and Ba/F3 EGFR D770_N771insSVD (all from KYinno Biotechnology (Beijing) Co., Ltd.); all of the above cells were cultured with RPMI1640 medium containing 10% fetal bovine serum, 100 U/mL penicillin, and 100 μg/mL streptomycin in the culture process.
1. The assay compound was dissolved with DMSO to form a stock solution and a gradient dilution was performed, followed by dilution with the corresponding medium to obtain a solution with 5-fold working concentration.
2. Cells in logarithmic growth phase were adjusted to specific cell densities by dilution with culture medium, and 80 μL of cell suspension was added to a 96-well plate, such that plating densities of cells of BT474, NCI-N87, Ba/F3-EGFR-VIII, Ba/F3 HER2 A775_G776insYVMA and Ba/F3 EGFR D770_N771insSVD were all 3000 cells/well. The cells of Ba/F3-EGFR-VIII, Ba/F3 HER2 A775_G776insYVMA and Ba/F3 EGFR D770_N771insSVD were used directly in the next step (treatment with compound), whereas the BT474 and NCI-N87 needed to be cultured overnight in a 37° C., 5% carbon dioxide gas incubator to adhere to the wall, and then treated with compounds.
3. […] The highest concentration of the assayed compound was 10 μM, 4-fold serial dilution, a total of 9 concentrations, and duplicate wells. A control group without compound was also set up.
4. The cells were cultured for another 72 hours, and then cell viability was detected by CTG assay kit. Signal values were read with a multifunctional plate reader (Perkin Elmer). GraphPad Prism software was used to create a dose-response curve and IC50 was calculated.

Where only a bound is given, the exact number is not on record here.

The term IC50 denotes the concentration that inhibits the measured activity by half. A low value points to inhibition by little substance.

Sequence of Ba/F3 HER2 A775_G776insYVMA cells (P04626 with tags, fused parts or gaps DUP772-775): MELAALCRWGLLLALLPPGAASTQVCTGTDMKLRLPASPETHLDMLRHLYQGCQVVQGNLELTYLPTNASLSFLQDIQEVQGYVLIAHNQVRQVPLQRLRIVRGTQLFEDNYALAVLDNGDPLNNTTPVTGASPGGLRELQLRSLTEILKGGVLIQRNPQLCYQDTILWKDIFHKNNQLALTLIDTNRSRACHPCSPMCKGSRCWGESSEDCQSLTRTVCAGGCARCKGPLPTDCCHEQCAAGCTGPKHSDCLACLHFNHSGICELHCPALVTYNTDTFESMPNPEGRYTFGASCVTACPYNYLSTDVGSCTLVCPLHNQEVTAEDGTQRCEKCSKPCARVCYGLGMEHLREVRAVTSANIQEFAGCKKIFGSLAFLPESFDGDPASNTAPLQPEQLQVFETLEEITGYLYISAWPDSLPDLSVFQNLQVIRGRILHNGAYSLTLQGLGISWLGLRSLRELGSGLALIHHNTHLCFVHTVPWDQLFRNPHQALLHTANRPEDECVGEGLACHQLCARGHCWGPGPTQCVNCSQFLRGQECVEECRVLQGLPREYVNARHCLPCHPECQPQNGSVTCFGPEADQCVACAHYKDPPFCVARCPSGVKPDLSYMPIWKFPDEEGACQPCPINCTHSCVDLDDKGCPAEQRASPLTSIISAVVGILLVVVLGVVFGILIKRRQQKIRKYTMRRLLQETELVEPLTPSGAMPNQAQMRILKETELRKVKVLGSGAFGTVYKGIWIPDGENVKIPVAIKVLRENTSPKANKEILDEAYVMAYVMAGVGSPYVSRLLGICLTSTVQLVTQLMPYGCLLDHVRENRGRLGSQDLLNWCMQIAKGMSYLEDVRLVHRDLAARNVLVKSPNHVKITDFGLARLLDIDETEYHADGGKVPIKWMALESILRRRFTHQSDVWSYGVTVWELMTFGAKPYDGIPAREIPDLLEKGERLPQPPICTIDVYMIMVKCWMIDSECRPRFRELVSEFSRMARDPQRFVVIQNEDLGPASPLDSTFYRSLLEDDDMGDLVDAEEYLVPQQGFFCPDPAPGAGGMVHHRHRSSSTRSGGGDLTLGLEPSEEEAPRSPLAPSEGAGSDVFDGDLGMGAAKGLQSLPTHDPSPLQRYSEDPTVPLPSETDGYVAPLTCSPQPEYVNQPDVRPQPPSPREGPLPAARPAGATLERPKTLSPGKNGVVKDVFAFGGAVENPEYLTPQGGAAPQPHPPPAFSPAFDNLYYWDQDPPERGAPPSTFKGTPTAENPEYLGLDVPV
Sequence of EGFR^WT kinase (P00533 25-1210): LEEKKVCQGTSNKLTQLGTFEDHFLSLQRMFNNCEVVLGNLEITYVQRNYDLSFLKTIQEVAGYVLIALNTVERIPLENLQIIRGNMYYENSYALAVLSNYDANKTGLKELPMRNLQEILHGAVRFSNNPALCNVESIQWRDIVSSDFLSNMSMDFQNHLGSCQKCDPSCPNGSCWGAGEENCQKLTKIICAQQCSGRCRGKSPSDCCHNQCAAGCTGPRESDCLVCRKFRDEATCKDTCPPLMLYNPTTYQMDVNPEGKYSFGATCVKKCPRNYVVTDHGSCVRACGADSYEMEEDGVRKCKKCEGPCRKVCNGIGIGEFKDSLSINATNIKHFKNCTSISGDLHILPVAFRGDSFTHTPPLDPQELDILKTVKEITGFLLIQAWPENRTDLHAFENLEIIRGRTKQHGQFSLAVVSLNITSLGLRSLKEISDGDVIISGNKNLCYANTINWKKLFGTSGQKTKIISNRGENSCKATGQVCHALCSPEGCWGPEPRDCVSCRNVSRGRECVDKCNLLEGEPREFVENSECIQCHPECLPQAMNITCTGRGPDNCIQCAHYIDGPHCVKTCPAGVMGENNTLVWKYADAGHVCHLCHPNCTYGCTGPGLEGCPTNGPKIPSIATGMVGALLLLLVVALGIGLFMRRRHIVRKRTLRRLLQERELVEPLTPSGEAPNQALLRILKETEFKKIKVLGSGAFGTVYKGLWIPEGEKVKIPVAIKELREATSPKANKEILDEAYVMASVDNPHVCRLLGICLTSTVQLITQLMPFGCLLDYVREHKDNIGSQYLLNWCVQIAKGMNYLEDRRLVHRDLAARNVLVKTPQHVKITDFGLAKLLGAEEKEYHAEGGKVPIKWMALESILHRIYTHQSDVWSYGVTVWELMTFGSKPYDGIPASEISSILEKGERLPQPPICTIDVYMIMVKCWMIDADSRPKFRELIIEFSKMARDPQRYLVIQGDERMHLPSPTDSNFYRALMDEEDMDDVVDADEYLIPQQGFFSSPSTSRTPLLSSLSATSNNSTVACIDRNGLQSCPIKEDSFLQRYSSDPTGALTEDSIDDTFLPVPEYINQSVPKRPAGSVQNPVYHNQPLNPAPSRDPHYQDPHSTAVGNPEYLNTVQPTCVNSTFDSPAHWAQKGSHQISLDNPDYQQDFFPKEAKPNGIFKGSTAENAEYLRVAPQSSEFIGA

As for `CCOc1c(NC(=O)/C=C/[C@H]2CCCN2C)ccc2ncnc(Nc3ccc(OCc4cccc(C)n4)c(Cl)c3)c12` [Example 22, (R,E)-N-(4-((3-chloro-4-((6-methylpyridin-2-yl)methoxy)phenyl)amino)-5-ethoxyquinazolin-6-yl)-3-(1-methylpyrrolidin-2-yl)acrylamide], the concentration for half-maximal inhibition (IC50) against EGFR^WT kinase and against HER2 kinase was less than 10 nM in each case. The GI50 in assay [1] is 1 to 5 nM.

With `COCCCCOc1c(NC(=O)/C=C/[C@H]2CCCN2C)ccc2ncnc(Nc3ccc(OCc4ccccn4)c(Cl)c3)c12` [Example 23, (R,E)-N-(4-((3-chloro-4-(pyridin-2-ylmethoxy)phenyl)amino)-5-(4-methoxybutoxy)quinazolin-6-yl)-3-(1-methylpyrrolidin-2-yl)acrylamide], the IC50 on EGFR^WT kinase was 100 to 1000 nM; against HER2 kinase, less than 10 nM. For the same molecule, in assay [1], the GI50 lay within 1 to 5 nM.

For the molecule `COCCN1CCC[C@@H]1/C=C/C(=O)Nc1ccc2ncnc(Nc3ccc(OCc4ccccn4)c(Cl)c3)c2c1OC` [Example 25, (R,E)-N-(4-((3-chloro-4-(pyridin-2-ylmethoxy)phenyl)amino)-5-methoxyquinazolin-6-yl)-3-(1-(2-methoxyethyl)pyrrolidin-2-yl)acrylamide], the 50% inhibitory concentration (IC50) against EGFR^WT kinase was 100 to 1000 nM; against HER2 kinase, less than 10 nM. Further, the GI50 in assay [1] fell in the range of 1 to 5 nM.

For the molecule `COc1cccc(COc2ccc(Nc3ncnc4ccc(NC(=O)/C=C/[C@H]5CCCN5C)c(OC)c34)cc2Cl)n1` [Example 27, (R,E)-N-(4-((3-chloro-4-((6-methoxypyridin-2-yl)methoxy)phenyl)amino)-5-methoxyquinazolin-6-yl)-3-(1-methylpyrrolidin-2-yl)acrylamide], the IC50 on EGFR^WT kinase is 10 to 100 nM; against HER2 kinase, less than 10 nM. In assay [1], the GI50 lay within 1 to 5 nM.

Turning to `COc1c(NC(=O)/C=C/[C@H]2CCCN2C)ccc2ncnc(Nc3ccc(OCc4ccccn4)c(F)c3)c12` [Example 30, (R,E)-N-(4-((3-fluoro-4-(pyridin-2-ylmethoxy)phenyl)amino)-5-methoxyquinazolin-6-yl)-3-(1-methylpyrrolidin-2-yl)acrylamide], the IC50 against EGFR^WT kinase and at HER2 kinase was less than 10 nM each time. The GI50 in assay [1] was in the range of 1 to 5 nM.

On to `CN1CCC[C@@H]1/C=C/C(=O)Nc1ccc2ncnc(Nc3ccc(Oc4ccccc4)cc3)c2c1OCCO` [Example 31, (R,E)-N-(5-(2-hydroxyethoxy)-4-((4-phenyloxyphenyl)amino)quinazolin-6-yl)-3-(1-methylpyrrolidin-2-yl)acrylamide], for which the IC50 at EGFR^WT kinase and at HER2 kinase was less than 10 nM throughout. The GI50 in assay [1] was 1 to 5 nM.

On to `COCCCNc1c(NC(=O)/C=C/[C@H]2CCCN2C)ccc2ncnc(Nc3ccc(OCc4ccccn4)c(Cl)c3)c12` [Example 32, (R,E)-N-(4-((3-chloro-4-(pyridin-2-ylmethoxy)phenyl)amino)-5-((3-methoxypropyl)amino)quinazolin-6-yl)-3-(1-methylpyrrolidin-2-yl)acrylamide], for which the half-maximal inhibitory concentration (IC50) is 100 to 1000 nM against EGFR^WT kinase and less than 10 nM against HER2 kinase. Besides, the GI50 in assay [1] is 1 to 5 nM.

On to `[2H]C([2H])([2H])Oc1c(NC(=O)/C=C/[C@H]2CCCN2CC)ccc2ncnc(Nc3ccc(OCc4ccccn4)c(Cl)c3)c12` [Example 34, (R,E)-N-(4-((3-chloro-4-(pyridin-2-ylmethoxy)phenyl)amino)-5-(methoxy-d3)quinazolin-6-yl)-3-(1-ethylpyrrolidin-2-yl)acrylamide], for which the half-inhibitory concentration (IC50) against EGFR^WT kinase and at HER2 kinase was less than 10 nM each time. The GI50 in assay [1] is 1 to 5 nM.

On to `[2H]C([2H])([2H])Oc1c(NC(=O)/C=C/[C@H]2CCCN2C(C)C)ccc2ncnc(Nc3ccc(OCc4ccccn4)c(Cl)c3)c12` [Example 35, (R,E)-N-(4-((3-chloro-4-(pyridin-2-ylmethoxy)phenyl)amino)-5-(methoxy-d3)quinazolin-6-yl)-3-(1-isopropylpyrrolidin-2-yl)acrylamide], for which the IC50 at EGFR^WT kinase was 10 to 100 nM; at HER2 kinase, less than 10 nM. Moreover, the GI50 in assay [1] was 1 to 5 nM.

For `[2H]C([2H])([2H])Oc1c(NC(=O)/C=C/CN(C)C)ccc2ncnc(Nc3ccc(OCc4ccccn4)c(Cl)c3)c12` [Example 36, (E)-N-(4-((3-chloro-4-(pyridin-2-ylmethoxy)phenyl)amino)-5-(methoxy-d3)quinazolin-6-yl)-4-(dimethylamino)but-2-enamide], the IC50 against EGFR^WT kinase and against HER2 kinase was less than 10 nM each time. For the same molecule, the GI50 in assay [1] was in the range of 1 to 5 nM.

Regarding `CN1CCC[C@@H]1/C=C/C(=O)Nc1ccc2ncnc(Nc3ccc(OCc4ccccn4)c(Cl)c3)c2c1OC1CC1` [Example 37, (R,E)-N-(4-((3-chloro-4-(pyridin-2-ylmethoxy)phenyl)amino)-5-cyclopropoxyquinazolin-6-yl)-3-(1-methylpyrrolidin-2-yl)acrylamide], the IC50 was 10 to 100 nM at EGFR^WT kinase and less than 10 nM on HER2 kinase. For the same molecule, the GI50 in assay [1] was in the range of 1 to 5 nM.

For the molecule `CN1CCC[C@@H]1/C=C/C(=O)Nc1ccc2ncnc(Nc3ccc(OCc4ccccn4)c(Cl)c3)c2c1OCC1CC1` [Example 38, (R,E)-N-(4-((3-chloro-4-(pyridin-2-ylmethoxy)phenyl)amino)-5-(cyclopropylmethoxy)quinazolin-6-yl)-3-(1-methylpyrrolidone-2-yl)acrylamide], the half-maximal inhibitory concentration (IC50) against EGFR^WT kinase and against HER2 kinase was less than 10 nM throughout. Moreover, the GI50 in assay [1] is 1 to 5 nM.

For `CN1CCC[C@@H]1/C=C/C(=O)Nc1ccc2ncnc(Nc3ccc(OCc4ccccn4)c(Cl)c3)c2c1OC1CCC1` [Example 39, (R,E)-N-(4-((3-chloro-4-(pyridin-2-ylmethoxy)phenyl)amino)-5-cyclobutoxyquinazolin-6-yl)-3-(1-methylpyrrolidin-2-yl)acrylamide], the half-maximal inhibitory concentration (IC50) at EGFR^WT kinase and at HER2 kinase was less than 10 nM throughout. The GI50 in assay [1] was 1 to 5 nM.

As for `CN1CCC[C@@H]1/C=C/C(=O)Nc1ccc2ncnc(Nc3ccc(OCc4ccccn4)c(Cl)c3)c2c1OC1CCOC1` (stereo partly drawn) [Example 40, (E)-N-(4-((3-chloro-4-(pyridin-2-ylmethoxy)phenyl)amino)-5-((tetrahydrofuran-3-yl)oxy)quinazolin-6-yl)-3-((R)-1-methylpyrrolidin-2-yl)acrylamide], the concentration for half-maximal inhibition (IC50) at EGFR^WT kinase and at HER2 kinase was less than 10 nM in each case. Also, the GI50 in assay [1] lay in the range of 1 to 5 nM.

The values are drawn from patent publication US20240246934A1, “QUINAZOLINE-BASED COMPOUND, COMPOSITION, AND APPLICATION OF QUINAZOLINE-BASED COMPOUND” (BEIJING SCITECH-MQ PHARMACEUTICALS LIMITED, priority 2021, published 2024).
